Here are results for two molecules from US11364211B2, “Methods for selecting phosphatase selective and non-selective phosphatase inhibitors” (MEDICAL RESEARCH COUNCIL, priority 2015, dated 2022).

The Kd is a measure of binding affinity in units of concentration.

Entries after “also recorded” stand apart in the source; their conditions may differ.

The test system of data set [1] is eIF2α phosphorylation in MEFs. Kind of data set: eIF2α phosphorylation in r15a mut/mut or r15b mut/mut MEFs (immunoblot). Type of data set: cell-based, mouse. The protocol: HeLa cells were maintained in Dulbecco's Modified Eagle's Media (DMEM) supplemented with penicillin, streptomycin, glutamine and 10% fetal bovine serum (FBS). Ppp1r15a −/− and Ppp1r15b −/− MEF cells were maintained in DMEM supplemented with penicillin, streptomycin, glutamine, 55 μM β-mercaptoethanol, 1X non-essential amino acids (Sigma) and 10% FBS.
Cells (90,000 cells/ml) were plated in a 24-well plate and treated as indicated. At the end of treatment cells were lysed in 150 μl Laemmli Buffer. Lysates were boiled at 95° C. for 5 minutes, sonicated and resolved on 4-12% Bolt Bis-Tris Plus Gels (Thermo Fisher Scientific). Proteins were transferred to the nitrocellulose membrane using the iBlot 2 system (Thermo Fisher Scientific) and analysed using the following antibodies: e-IF2α-P (44-728G, Thermo Fisher Scientific, 1:1000), e-IF2α (ab5369, Abcam, 1:1000), tubulin (T5168, Sigma-Aldrich, 1:4000), BiP (610978, BD Biosciences Pharmingen, 1:1000), ATF4 (sc-200, Santa Cruz Biotechnology, 1:500), Ppp1r15a (10449-1-AP, Proteintech, 1:1000) and Ppp1r15b (14634-1-AP, Proteintech, 1:1000). Proteins were visualized using ECL Prime (GE Healthcare).
Background: In western blotting, separated proteins are transferred to a membrane and probed.

Data set [2] is described as follows: Toxicity and weight in mice treated for 2 weeks. It counts as in vivo, mouse. The arrangement: toxicity / clinical signs: dose or concentration left out as unconfirmed. On the procedure:
For studying the effect of a compound of Example 1 on weight, C3H/B6 mice were gavaged orally once a day with compounds of Example 1 and mice weight was recorded daily for 2 weeks.
Mice were treated with Example 1 and monitored closely to detect any clinical signs. […] This establishes that PPP1R15B inhibition is not toxic. This was surprising and unanticipated as prior to this study one would have speculated that PPP1R15B inhibitors would be so deleterious that they would have no therapeutic potential.

A short description of data set [3]: Guanabenz-like side effects: mouse activity after acute dosing. It counts as in vivo. The following applies: 10 mg/kg oral gavage, 30 minutes following dosing. The protocol:
To assess whether of a compound of Example 1 had the side effects of Guanabenz, mice (n>3) were gavaged orally with 10 mg/kg of compound or Guanabenz. Their activity was monitored 30 minutes following dosing.
In order to assess the GBZ-like side effects (due to the adrenergic activity) of treatment the motor performance of mice was monitored after a single administration of TST3. To this end mice were treated with TST3 and left in a cage for 60 minutes. Mice behaviour was monitored every 15 minutes. Mice similarly treated with GBZ were used as a control.

In the next data set the test system is db/db mice. Kind of data set: Blood glucose in obese db/db mice. Type of data set: in vivo, mouse. The following applies: 1 mg/kg once a day for three weeks. The protocol: For treatment of a metabolic disorder, Db/db animals (n=5 per condition) were treated once a day with 1 mg/kg of compound of Example 1 for three weeks. Blood glucose levels were measured with a blood glucose meter (DSI) between 9 and 10 am. Data are mean +/− S.e.m.

For a further data set, the target named is PP1c (Homo sapiens, UniProt P36873). Kind of data set: SPR binding to PP1c alone immobilized on chip. On the procedure: The streptavidin coated surface was activated by 1 minute injection with a solution of 50 mM NaOH and 1 M NaCl three times at a flow rate of 10 μl/min. bio-GBZ or bio-PP1c was diluted in the running buffer (50 mM Tris pH 7.5, 100 mM NaCl, 0.1 mM EGTA, 0.05% Tween 20, 0.1% DMSO) and injected at approximately 300 nM concentration at a flow rate of 10 μl/min directly to streptavidin coated surface to reach immobilization level of bio-GBZ or bio-PP1c corresponding to ˜200 and 6000 RU, respectively. A blank immobilization was performed for one of the SA sensor chip surface to use as a reference.
Chain of PP1c (P36873 whole entry): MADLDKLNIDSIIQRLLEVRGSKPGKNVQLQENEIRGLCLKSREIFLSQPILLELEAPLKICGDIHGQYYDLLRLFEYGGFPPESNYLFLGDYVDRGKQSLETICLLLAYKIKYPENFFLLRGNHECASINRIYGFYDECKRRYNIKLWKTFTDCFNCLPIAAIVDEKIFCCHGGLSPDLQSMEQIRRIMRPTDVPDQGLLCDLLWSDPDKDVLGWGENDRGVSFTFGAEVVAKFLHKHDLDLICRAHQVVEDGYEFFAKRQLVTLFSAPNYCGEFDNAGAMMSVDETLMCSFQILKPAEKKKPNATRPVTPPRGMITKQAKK
With minor deviations, the same procedure and conditions were used in all binding experiments. Small molecules were stored as 50 mM stock solutions in 100% DMSO. Prior to determining binding constants, serial dilutions of either 12 or 8 concentrations of the compounds were prepared in the running buffer in a 96-well plate. […] This was followed by 1 minute stabilization period, to wash off any unspecific binding. Then, without regenerating the surface, the compound dilution series was injected onto the surface of the chip at a flow rate of 30 μl/min for 1 minute, followed by 2 minutes dissociation time. […]
Kinetic experiments are carried out using different concentrations of the compound and their respective equilibrium binding levels determined.
(In general: Surface plasmon resonance follows binding to a sensor surface in real time, without labels.)

Data set [4] addresses T1, R15A (Homo sapiens, UniProt O75807).
T1 construct: the cDNAs encoding amino acids 325-636 of PPP1R15A; MBP (N); His (C); made in house; host or cells: E. coli BL21-Gold
Kind of data set: SPR of recombinant R15A binding to immobilized bio-GBZ. The following applies: isolated R15A fragment, compound immobilized on chip. The protocol: (§1) B. SPR sensorgrams of R15A and R15B binding to bio-GBZ immobilized on the SPR sensor chip surface. R15A/B concentration=0.0244-12.5 μM.
(§2) Here we set out to develop a generalizable strategy to identify new selective phosphatase inhibitors. First, we expressed and purified R15A and R15 B (FIG. 12) and used surface plasmon resonance (SPR) to measure binding affinities of known R15A inhibitors to their targets. We tried to immobilized R15 on SPR chip but this method produced inconsistent results, probably because the natively unstructured proteins precipitate on the chip. We therefore used biotynilated guanabenz (GBZ) (7) that we immobilized on the chip and tested binding of the proteins on the immobilized compound (FIGS. 13A and 13B).
(§3) A Biacore T200 (GE Healthcare) system was used for all experiments and biotinylated GBZ (bio-GBZ) (Tsaylter 2011) or bio-PP1 was captured on a Sensor Chip SA (GE Healthcare). […]

The test system of data set [5] is R15A. The description is as above. More on the design: species or system human. The note with it: immobilized biotinylated GBZ. On the procedure: as §1, §2, §3

T1 sequence (O75807 325-636, stated change not applied): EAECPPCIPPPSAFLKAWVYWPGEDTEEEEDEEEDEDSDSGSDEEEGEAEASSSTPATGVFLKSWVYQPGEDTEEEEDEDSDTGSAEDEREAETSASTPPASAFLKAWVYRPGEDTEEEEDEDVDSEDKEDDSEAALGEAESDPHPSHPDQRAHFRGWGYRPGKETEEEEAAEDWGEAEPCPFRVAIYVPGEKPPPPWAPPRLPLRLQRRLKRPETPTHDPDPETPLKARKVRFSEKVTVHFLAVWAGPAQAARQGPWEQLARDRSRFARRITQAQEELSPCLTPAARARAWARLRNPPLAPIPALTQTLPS

As for `[H]/N=C(\N)NN=Cc1cccc(Cl)c1Cl` [Example 1, (E)-2-(2,3-dichlorobenzylidene)hydrazine-1-carboximidamide], the “eIF2α phosphorylation upon inactivation of R15A” value in data set [1] (r15a mut/mut MEFs) is listed as “rendered persistent”. Moreover, in data set [1] (r15b mut/mut MEFs, 10 μM, listed as TST3), the “effect on eIF2α phosphorylation in r15b knock out cells” value was “activity is abolished”. Also, the “toxicity / clinical signs” value in data set [2] (once a day for 2 weeks) is “undistinguishable from mice treated with placebo; also recorded: not toxic”. Further, the weight gain result in data set [2] (up to 10 mg/mg once a day for 2 weeks) is on record as “gained weight normally”. In addition, in data set [3] (10 mg/kg), the “side effects of Guanabenz / activity of mice after dosing” value is recorded as “as active as untreated mice; also recorded: devoid of the side effects of Guanabenz; also recorded: does not cause the side effects of Guanabenz”. Besides, the blood glucose result in the data set with db/db mice is recorded as “ameliorate a metabolic disorder; also recorded: reduced the pathological high blood glucose”.
`N=C(N)N/N=C/c1c(Cl)cccc1Cl` [Guanabenz, reference compound]: the “binding to PP1c alone (in words)” value at PP1c was “not to PP1c alone”. In addition, the Kd on R15A [4] came to 11 µM. In addition, the “affinity for recombinant R15A fragment relative to R15B” value with R15A [5] is reported as “ten times higher affinity”. Moreover, in data set [3], the “side effects of Guanabenz / activity of mice after dosing” value is listed as “did not move”.
